Measured values from patent US20220315567A1 (priority 2016, published 2022).
Counter-ions that a name gives are not always drawn. Like-named read-outs stand apart in the source and are kept apart here.

Experiments:
human OPRM1 (μ, MOR) [1] = target: T1, human OPRM1 (μ, MOR) (Homo sapiens, UniProt P35372); type: cell-based; settings: for ΔRA of compound: relative activity from EC50 and Emax of β-arrestin vs cAMP, lower RA = more G-protein biased
T1 construct: host or cells: CHO-K1
Protocol: In certain embodiments, the ability of a compound to activate G-protein or β-arrestin is not an on/off switch for a given pathway, but rather a continuous function. To capture this, each compound is measured for activity in cell assays that are linked to β-arrestin recruitment and G-protein signaling. By comparing the activity between these two measures (accounting for both EC50 and maximal response reached, Emax) a relative activity (RA) value is determined.
In the case of MOR it is desirable to have high activation of the G-protein pathway while reducing activation of β-arrestin. In the case of the formula above, this means a lower RA.

human OPRM1 (μ, MOR) [2] = target: T1, human OPRM1 (μ, MOR); assay: cell-based; settings: for Emax: OPRM1, read-out: cAMP Emax; for EC50: PathHunter human OPRM1 Arrestin CHO-K1 cell line, read-out: cAMP EC50
Protocol: G-protein signaling was measured via second messenger cAMP modulation. Detection of cAMP modulation was accomplished in the PathHunter human OPRM1 (μ, MOR) Arrestin CHO-K1 cell line using the Dynamic2 cAMP Kit from Cisbio.

human OPRM1 (μ, MOR) [3] = target: T1, human OPRM1 (μ, MOR); assay: cell-based; settings: for Emax: OPRM1, read-out: β-Arrestin Emax; for EC50: PathHunter human OPRM1 Arrestin CHO-K1 cell line, read-out: β-Arrestin EC50
Protocol: The Discoverx PathHunter® β-Arrestin assay is used to measure β-arrestin-2 activity. The technology is based on Enzyme Fragment Complementation (EFC) with β-galactosidase (β-Gal) as the reporter. […] EA is fused to Q-arrestin-2, and ED is fused to the C-terminus of the GPCR of interest. When a ligand binds and the GPCR is activated, Q-arrestin-2 is recruited to the receptor resulting in an ED/EA complementation, restoring f-Gal activity, which is measured using chemiluminescence. For this assay, the PathHunter human OPRM1 (μ, MOR) Arrestin CHO-K1 cell line was used.

T1 sequence (P35372 whole entry): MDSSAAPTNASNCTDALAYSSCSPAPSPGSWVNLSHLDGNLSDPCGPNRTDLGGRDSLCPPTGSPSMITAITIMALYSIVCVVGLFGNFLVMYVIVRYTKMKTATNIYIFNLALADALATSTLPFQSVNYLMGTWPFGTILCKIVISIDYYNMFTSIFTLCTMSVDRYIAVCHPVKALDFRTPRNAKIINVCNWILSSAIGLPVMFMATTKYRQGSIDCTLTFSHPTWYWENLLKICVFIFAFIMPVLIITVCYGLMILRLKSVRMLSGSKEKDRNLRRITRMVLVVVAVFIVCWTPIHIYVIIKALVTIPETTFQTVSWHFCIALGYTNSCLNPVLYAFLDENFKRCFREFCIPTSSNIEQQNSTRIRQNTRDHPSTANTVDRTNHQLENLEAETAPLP

| Structure (SMILES) | Bias Factor (ΔRA of compound relative to ΔRA of DAMGO) × 10 (human OPRM1 (μ, MOR) [1]) | ΔRA of compound (human OPRM1 (μ, MOR) [1]) | Emax (human OPRM1 (μ, MOR) [2]) [%] | EC50 (human OPRM1 (μ, MOR) [2]) [nM] | Emax (human OPRM1 (μ, MOR) [3]) [%] | EC50 (human OPRM1 (μ, MOR) [3]) [nM] | Bias Factor (ΔRA of compound relative to ΔRA of DAMGO) × 10 (human OPRM1 (μ, MOR) [1]; hydrochloride) | ΔRA of compound (human OPRM1 (μ, MOR) [1]; hydrochloride) | cAMP Emax (human OPRM1 (μ, MOR) [2]) [%] | β-Arrestin Emax (human OPRM1 (μ, MOR) [3]) [%] |
| --- | --- | --- | --- | --- | --- | --- | --- | --- | --- | --- |
| COc1ccc(C(CNC(=O)N2Cc3ccc(F)cc3C2)N(C)C)cc1 (stereo not drawn) [Compound 16a, N-(2-(Dimethylamino)-2-(4-methoxyphenyl)ethyl)-5-fluoroisoindoline-2-carboxamide hydrochloride] | −9.60 | −2.44 | 91.9 | 26 | 12.2 | 950 |  |  |  |  |
| CN(C)C(CNC(=O)N1Cc2ccc(F)cc2C1)c1ccc(F)cc1Cl (stereo not drawn) [Compound 17a, N-(2-(2-Chloro-4-fluorophenyl)-2-(dimethylamino)ethyl)-5-fluoroisoindoline-2-carboxamide hydrochloride] | −12.08 | −2.69 | 111 | 43 | 27 | 5120 |  |  |  |  |
| CN(C)C(CNC(=O)N1Cc2ccccc2C1)c1ccccc1 (stereo not drawn) [Compound 18a, N-(2-(Dimethylamino)-2-phenylethyl)isoindoline-2-carboxamide hydrochloride] |  |  | 100 | 23 | 6.91 | 730 | −11.84 | −2.66 |  |  |
| CN(C)C(CNC(=O)NC1CCc2ccccc2C1)c1ccccc1 (stereo not drawn) [Compound 19a, 1-(2-(Dimethylamino)-2-phenylethyl)-3-(1,2,3,4-tetrahydronaphthalen-2-yl)urea hydrochloride] | <−14.83 | <−2.96 | 86.1 | 32 | 2.34 | > 100000 |  |  |  |  |
| CN(C)C(CNC(=O)N1Cc2ccc(F)cc2C1)c1ccccc1 (stereo not drawn) [Compound 20a, N-(2-(Dimethylamino)-2-phenylethyl)-5-fluoroisoindoline-2-carboxamide hydrochloride] | <−14.83 | <−2.96 | 70.8 | 31 | 3.65 | > 100000 |  |  |  |  |
| CN(C)C(CNC(=O)N1Cc2ccc(O)cc2C1)c1ccsc1 (stereo not drawn) [Compound 22, N-(2-(Dimethylamino)-2-(thiophen-3-yl)ethyl)-5-hydroxyisoindoline-2-carboxamide hydrobromide] | <−14.83 | <−2.96 | 16.3 | 322 | < 1 | > 100000 |  |  |  |  |
| CN(C)C(CNC(=O)N1Cc2ccc(O)cc2C1)c1ccc(O)cc1 (stereo not drawn) [Compound 24, N-(2-(dimethylamino)-2-(4-hydroxyphenyl)ethyl)-5-hydroxyisoindoline-2-carboxamide hydrobromide] | <−14.83 | <−2.96 | < 10 | > 100000 | < 1 | > 100000 |  |  |  |  |
| CN(C)[C@H](CCNC(=O)N1Cc2ccc(F)cc2C1)c1ccsc1 [Compound 30-R, (R)—N-(3-(Dimethylamino)-3-(thiophen-3-yl)propyl)-5-fluoroisoindoline-2-carboxamide] | −5.73 | −2.05 | 109 | 603 | 9.2 | 5730 |  |  |  |  |
| CN(C)[C@@H](CCNC(=O)N1Cc2ccc(F)cc2C1)c1ccsc1 [Compound 30-S, (S)—N-(3-(Dimethylamino)-3-(thiophen-3-yl)propyl)-5-fluoroisoindoline-2-carboxamide] | <−14.83 | <−2.96 | 96.1 | 688 | 9.9 | > 100000 |  |  |  |  |
| CNC(CNC(=O)N1Cc2ccc(F)cc2C1)c1ccsc1 (stereo not drawn) [Compound 35, 5-Fluoro-N-(2-(methylamino)-2-(thiophen-3-yl)ethyl)isoindoline-2-carboxamide] | <−14.83 | <−2.96 | 26.4 | 1170 | < 1 | > 100000 |  |  |  |  |
| CNC(CNC(=O)N1Cc2ccccc2C1)c1ccccc1 (stereo not drawn) [Compound 38, N-(2-(methylamino)-2-phenylethyl)isoindoline-2-carboxamide] | −12.56 | −2.74 | 95.9 | 45 | 6.6 | 1670 |  |  |  |  |
| CN(C)C(CNC(=O)N(C)[C@H]1CCCc2ccccc21)c1ccsc1 (stereo partly drawn) [Compound 39] | −1.90 | −1.67 | 93.4 | 118 | 10.9 | 644 |  |  |  |  |
| CN(C)C(CNC(=O)N1CC[C@H](c2ccccc2)C1)c1ccsc1 (stereo partly drawn) [Compound 40] | <−14.83 | <−2.96 | 53.5 | 152 | 3.3 | > 100000 |  |  |  |  |
| COc1ccc(C(CNC(=O)N2CC[C@@H](c3ccccc3)C2)N(C)C)cc1 (stereo partly drawn) [Compound 42] | <−14.83 | <−2.96 | 21.9 | 7430 | < 1 | > 100000 |  |  |  |  |
| COc1ccc(C(CNC(=O)N2CC[C@H](c3ccccc3)C2)N(C)C)cc1 (stereo partly drawn) [Compound 43] | <−14.83 | <−2.96 | 54.2 | 1720 | < 1 | > 100000 |  |  |  |  |
| CN(C)C(CNC(=O)N(C)[C@@H]1CCCc2ccccc21)c1ccsc1 (stereo partly drawn) [Compound 45] | <−14.83 | <−2.96 | 101 | 276 | 8.1 | > 100000 |  |  |  |  |
| CN(C)C1(CNC(=O)N2Cc3ccc(F)cc3C2)CCCCC1 [Compound 46] | −7.08 | −2.19 | 109 | 522 | 13.6 | 10100 |  |  |  |  |
| CN(C)C(CNC(=O)N1CCCc2ccc(O)cc21)c1ccsc1 (stereo not drawn) [Compound 49] | <−14.83 | <−2.96 | 97 | 998 | < 1 | > 100000 |  |  |  |  |
| CN(C)C(CNC(=O)N[C@@H]1CCc2ccc(O)cc2C1)c1ccsc1 (stereo partly drawn) [Compound 50] | <−14.83 | <−2.96 | 48.3 | 36 | < 1 | > 100000 |  |  |  |  |
| CN(C)C(CNC(=O)N[C@H]1CCc2ccccc2C1)c1ccsc1 (stereo partly drawn) [Compound 51] | <−14.83 | <−2.96 |  | 29 |  | > 100000 |  |  | 64.9 | <1 |
| CN(C)C(CNC(=O)N[C@H]1CCc2ccccc2C1)c1ccsc1 (stereo partly drawn) [Compound 52] | <−14.83 | <−2.96 |  | 227 |  | > 100000 |  |  | 12.2 | <1 |
| CN(C)C(CNC(=O)NC1CCCc2c(O)cccc21)c1ccsc1 (stereo not drawn) [Compound 59] | −1.95 | −1.67 | 108 | 6 | 61 | 160 |  |  |  |  |
| CN(C)C(CNC(=O)N[C@H]1CCc2ccc(O)cc2C1)c1ccsc1 (stereo partly drawn) [Compound 60] | <−14.83 | <−2.96 | 27.5 | 676 | < 1 | > 100000 |  |  |  |  |
| CN(C)C1(CNC(=O)N2Cc3ccc(F)cc3C2)CCCC1 [Compound 63] | <−14.83 | <−2.96 | 87.9 | 2510 | < 1 | > 100000 |  |  |  |  |
| CN(C)C1(CNC(=O)N2Cc3ccccc3C2)CCCC1 [Compound 64] | <−14.83 | <−2.96 | 88.7 | 2150 | < 1 | > 100000 |  |  |  |  |
| CN(C)C(CNC(=O)N1CCCc2ccccc21)c1ccccc1 (stereo not drawn) [Compound 69a] | −8.38 | −2.32 | 110 | 563 | 8 | 8560 |  |  |  |  |
| CN(C)C(CNC(=O)N1CCCc2cc(F)ccc21)c1ccccc1 (stereo not drawn) [Compound 70a] | −10.82 | −2.56 | 90.3 | 512 | 5.3 | 11000 |  |  |  |  |
